Key:
DU-145 = assay: In vitro cytotoxicity screening (sulphodamine B dye), DU-145; format: cell-based; conditions: Homo sapiens; DU-145 prostate cancer cell line
Protocol: (§1) Cells at sub confluent stage were harvested from the flask by treatment with trypsin (0.5% in PBS containing 0.02% EDTA) for determination of cytotoxicity. […] The cell suspensions of required cell density were prepared in complete growth medium with gentamycin (50 μg/ml) for determination of cytotoxicity. The cells (100 μl/well) were inoculated in 96 well tissue culture plates. The cells were allowed to grow for 24 hrs temperature of 37° C. and in a humidified atmosphere of 5% CO2 in air. Stock solution of (20 mM) of test material was prepared in DMSO. The stock solution was serially diluted with complete growth medium containing 50 μg/ml of gentamycin to obtain […] working test solutions of 1., 2, 5, 10, 50 and 100 μM.
(§2) The media were supplemented with FCS (10%), penicillin (100 Units/ml), streptomycin (100 μg/ml) and glutamine (2 mM) and cells were grown in CO2 incubator (Hera cell, Heraeus, USA) at 37° C. with 90% humidity and 5% CO2.

SW-620 = assay: In vitro cytotoxicity screening (sulphodamine B dye), SW-620; format: cell-based; conditions: Homo sapiens; SW-620 colon cancer cell line
Protocol: as §1, §2

PC-3 = assay: In vitro cytotoxicity screening (sulphodamine B dye), PC-3; format: cell-based; conditions: Homo sapiens; PC-3 prostate cancer cell line
Protocol: as §1, §2

| SMILES | melting point [°C] | IC50 (DU-145) [µM] | IC50 (SW-620) [µM] | IC50 (PC-3) [µM] |
| --- | --- | --- | --- | --- |
| COc1ccc(N2CC23C(=O)O[C@@H]2[C@H]3CC[C@H](C)[C@]3(O)C=CC(=O)[C@@]23C)cc1 (some centres unmarked) | 245 to 247 | – | – | – |
| Cc1ccc(N2CC23C(=O)O[C@@H]2[C@H]3CC[C@H](C)[C@]3(O)C=CC(=O)[C@@]23C)cc1 (some centres unmarked) | 241 to 242 | – | – | – |
| COc1ccc(C2=NOC3(C2)C(=O)O[C@@H]2[C@H]3CC[C@H](C)[C@]3(O)C=CC(=O)[C@@]23C)cc1 (some centres unmarked) [Compound -1] | – | 20 | 41 | 35 |
| C[C@H]1CC[C@@H]2[C@@H](OC(=O)C23CC(c2ccc(Cl)cc2)=NO3)[C@]2(C)C(=O)C=C[C@@]12O (some centres unmarked) [Compound -2] | 138.2 | 43 | 51 | 49 |
| C[C@H]1CC[C@@H]2[C@@H](OC(=O)C23CC(c2ccc(N(C)C)cc2)=NO3)[C@]2(C)C(=O)C=C[C@@]12O (some centres unmarked) [Compound -4] | – | – | – | 6.33 |
| C[C@H]1CC[C@@H]2[C@@H](OC(=O)C23CC(c2ccc(O)cc2)=NO3)[C@]2(C)C(=O)C=C[C@@]12O (some centres unmarked) [Compound -5] | 129.2 | 93 | 89 | – |
| C[C@H]1CC[C@@H]2[C@@H](OC(=O)C23CC(c2cccc([N+](=O)[O-])c2)=NO3)[C@]2(C)C(=O)C=C[C@@]12O (some centres unmarked) [Compound -11] | – | 51 | 49 | 55 |
| C[C@H]1CC[C@@H]2[C@@H](OC(=O)C23CC(c2cccs2)=NO3)[C@]2(C)C(=O)C=C[C@@]12O (some centres unmarked) [Compound -12] | – | 19 | 34 | 29 |
| Cc1ccccc1C1=NOC2(C1)C(=O)O[C@@H]1[C@H]2CC[C@H](C)[C@]2(O)C=CC(=O)[C@@]12C (some centres unmarked) [Compound -13] | 277 | 12 | 5 | 10 |
| Cc1cccc(C2=NOC3(C2)C(=O)OC2C3CC[C@H](C)[C@]3(O)C=CC(=O)[C@@]23C)c1 (some centres unmarked) [Compound -14] | – | – | – | 66.6 |
| C[C@H]1CC[C@@H]2[C@@H](OC(=O)C23CC(c2ccc(F)cc2)=NO3)[C@]2(C)C(=O)C=C[C@@]12O (some centres unmarked) [Compound -15] | 193 | 13 | 3.6 | 27 |
| C[C@H]1CC[C@@H]2[C@@H](OC(=O)C23CC(c2ccc(C#N)cc2)=NO3)[C@]2(C)C(=O)C=C[C@@]12O (some centres unmarked) [Compound -16] | 147 | 26 | 53 | 32 |
| C[C@H]1CC[C@@H]2[C@@H](OC(=O)C23CC(c2ccc(Cl)cc2)N(c2ccccc2)O3)[C@]2(C)C(=O)C=C[C@@]12O (some centres unmarked) [Compound -18] | 183 | 7 | 7.5 | 7.8 |
| Cc1ccccc1C1CC2(ON1c1ccccc1)C(=O)O[C@@H]1[C@H]2CC[C@H](C)[C@]2(O)C=CC(=O)[C@@]12C (some centres unmarked) [Compound -19] | 181 | 5.6 | 6 | 6.4 |
| C[C@H]1CC[C@@H]2[C@@H](OC(=O)C23CC(c2ccc(Br)cc2)N(c2ccccc2)O3)[C@]2(C)C(=O)C=C[C@@]12O (some centres unmarked) [Compound -20] | 185 | 6.3 | 6.7 | 5.8 |
| Cc1ccc(C2CC3(ON2c2ccccc2)C(=O)O[C@@H]2[C@H]3CC[C@H](C)[C@]3(O)C=CC(=O)[C@@]23C)cc1 (some centres unmarked) [Compound -21] | 114 | 8.1 | 8.7 | 8.5 |
| C[C@H]1CC[C@@H]2[C@@H](OC(=O)C23CC(c2ccccc2)N(c2ccccc2)O3)[C@]2(C)C(=O)C=C[C@@]12O (some centres unmarked) [Compound -23] | 170 | 5.6 | 5.8 | 5.7 |
| C[C@H]1CC[C@@H]2[C@@H](OC(=O)C23CC(c2ccc(F)cc2)N(c2ccccc2)O3)[C@]2(C)C(=O)C=C[C@@]12O (some centres unmarked) [Compound -24] | 154 | 6.4 | 7.3 | 5.7 |

| SMILES | melting point [°C] | IC50 (DU-145) [µM] | IC50 (SW-620) [µM] | IC50 (PC-3) [µM] |
| --- | --- | --- | --- | --- |
| COc1ccc(C2CC3(ON2c2ccccc2)C(=O)O[C@@H]2[C@H]3CC[C@H](C)[C@]3(O)C=CC(=O)[C@@]23C)cc1Br (some centres unmarked) [Compound -25] | 96 | 6.3 | 6.8 | 5.7 |
| C[C@H]1CC[C@@H]2[C@@H](OC(=O)C23CC(c2ccc(C#N)cc2)N(c2ccccc2)O3)[C@]2(C)C(=O)C=C[C@@]12O (some centres unmarked) [Compound -26] | 116 | 5 | 4.8 | 4.8 |
| COc1ccc(Br)cc1C1CC2(ON1c1ccccc1)C(=O)O[C@@H]1[C@H]2CC[C@H](C)[C@]2(O)C=CC(=O)[C@@]12C (some centres unmarked) [Compound -27] | 197 | 7.8 | 6.1 | 8.2 |
| COc1ccc(C2CC3(ON2c2ccccc2)C(=O)O[C@@H]2[C@H]3CC[C@H](C)[C@]3(O)C=CC(=O)[C@@]23C)c(OC)c1 (some centres unmarked) [Compound -28] | 99 | 11 | 7.5 | 11 |
| COc1cc(C2CC3(ON2c2ccccc2)C(=O)O[C@@H]2[C@H]3CC[C@H](C)[C@]3(O)C=CC(=O)[C@@]23C)cc(OC)c1OC (some centres unmarked) [Compound -29] | 119 | 5.6 | 5.7 | 8.6 |
| Cc1cc(C2CC3(ON2c2ccccc2)C(=O)O[C@@H]2[C@H]3CC[C@H](C)[C@]3(O)C=CC(=O)[C@@]23C)cc(C)c1O (some centres unmarked) [Compound -30] | 108 | – | – | – |
| C[C@H]1CC[C@@H]2[C@@H](OC(=O)C23CC(c2cccc(Cl)c2)N(c2ccccc2)O3)[C@]2(C)C(=O)C=C[C@@]12O (some centres unmarked) [Compound -31] | 180 | 7.4 | 6.1 | 8.2 |
| C[C@H]1CC[C@@H]2[C@@H](OC(=O)C23CC(c2ccccc2[N+](=O)[O-])C(c2ccccc2)O3)[C@]2(C)C(=O)C=C[C@@]12O (some centres unmarked) [Compound -32] | 158 | 28 | 13 | 8.4 |
| COc1ccccc1C1CC2(ON1c1ccccc1)C(=O)O[C@@H]1[C@H]2CC[C@H](C)[C@]2(O)C=CC(=O)[C@@]12C (some centres unmarked) [Compound -33] | 111 | 91 | 53 | 81 |
| C[C@H]1CC[C@@H]2[C@@H](OC(=O)C23CN3c2ccccc2)[C@]2(C)C(=O)C=C[C@@]12O (some centres unmarked) [Compound -34] | 245 to 247 | 31.4 | 87.7 | 10.6 |
| C[C@H]1CC[C@@H]2[C@@H](OC(=O)C23CN3c2cccc(Cl)c2)[C@]2(C)C(=O)C=C[C@@]12O (some centres unmarked) [Compound -35] | – | 39.5 | 48.4 | 86.1 |
| COc1ccccc1N1CC12C(=O)O[C@@H]1[C@H]2CC[C@H](C)[C@]2(O)C=CC(=O)[C@@]12C (some centres unmarked) [Compound -37] | – | – | 47.3 | 52 |
| Cc1cccc(N2CC23C(=O)O[C@@H]2[C@H]3CC[C@H](C)[C@@]3(O)C=CC(=O)[C@@]23C)c1 (some centres unmarked) [Compound -38] | – | 62.5 | 15 | 61.5 |
| C[C@H]1CC[C@@H]2[C@@H](OC(=O)C23CN3c2ccccc2[N+](=O)[O-])[C@]2(C)C(=O)C=C[C@]12O (some centres unmarked) [Compound -39] | 222 to 224 | 28 | 33 | 10 |
| C[C@H]1CC[C@@H]2[C@@H](OC(=O)C23CN3c2cccc([N+](=O)[O-])c2)[C@]2(C)C(=O)C=C[C@@]12O (some centres unmarked) [Compound -40] | 241 to 242 | – | 61 | 10.1 |
| Cc1ccccc1N1CC12C(=O)O[C@@H]1[C@H]2CC[C@H](C)[C@]2(O)C=CC(=O)[C@@]12C (some centres unmarked) [Compound -43] | – | – | 22 | 12.5 |
| COc1ccc(C2=NOC3(C2)C(=O)O[C@@H]2[C@H]3CC[C@H](C)[C@]3(O)C=CC(=O)[C@@]23C)cc1OC (some centres unmarked) [Compound -80] | 151 | 84 | 86 | – |

From patent US8609858B2, “Spiro derivatives of parthenin as novel anticancer agents” (Council of Scientific & Industrial Research, priority 2008, dated 2013)
